In patent publication US20030108462A1, “Method of extracting contaminants from solid matter” (priority 2001, published 2003):
Values joined by “and” are separate entries in the source; they are usually repeats but may differ in a detail not shown here. Equal entries are not always repeated.

What was measured:
[1] = Chelating-agent leaching of comminuted CCA treated wood, copper; settings: weight basis, before being adjusted for moisture content
Protocol: (§1) 32 grams of the comminuted treated wood was used to represent 1 mole of the contaminants, and was reacted with 1000 ml of 0.1 mole ethylenediamine-N,N,N′,N′-tetraacetic acid at a temperature of 70° C. for a period of 6 hours. The sample was agitated and allowed to settle periodically to thoroughly mix the wood and the solution, as well as to facilitate leaching. After the last settling period, the mixture stratified into a green colored supernatant which contained the chelated CCA components in soluble form at the top, and clean looking sawdust at the bottom of the reaction container.
(§2) Upon completion of reaction, the supernatant was decanted and retained. The solid section was allowed to drain freely for 15 minutes, after which 500 ml of fresh water was added and the mixture was periodically mixed and allowed to settle for a period of 30 minutes. Similarly, the mixture stratified into a light green solution and cleaner looking saw dust. The liquid was decanted and added to the previously decanted liquid. The settled solids were wrapped in a 250μ filter paper and subjected to a weight of 6 pounds per square inch and allowed to drain. Upon completion, the drained liquid was added to the previously decanted liquids and sent for laboratory analysis. The retained solids were oven dried and analyzed for the target contaminants.
(§3) 100 grams of the comminuted treated wood was used to represent 1 mole of the contaminants and reacted with 1000 mL of 0.1 mole EDTA disodium solution at 30° C. for 30 hours. […]
(§4) Upon completion of reaction, the supernatant was decanted and retained. […] The retained solids were oven dried and analyzed for the target contaminants. […]
(§5) Upon completion of reaction, the supernatant was decanted and retained The solid section was allowed to drain freely for 15 minutes, after which 500 ml of fresh water with a known quality was added and the mixture was periodically mixed and allowed to settle for a period of 30 minutes. […] The retained solids were oven dried and analyzed for the target contaminants.

[2] = Chelating-agent leaching of comminuted CCA treated wood, arsenic; settings: weight basis, before being adjusted for moisture content
Protocol: as §1, §2, §3, §4, §5

[3] = Chelating-agent leaching of comminuted CCA treated wood, chromium; settings: weight basis, before being adjusted for moisture content
Protocol: as §1, §2, §3, §4, §5

[4] = at 25° C.; cited from earlier work

Row | SMILES | Percent Removal, Copper [1] | Percent Removal, Arsenic [2] | Percent Removal, Chromium [3] | Solubility [4]
1 | O=C([O-])CN(CCN(CC(=O)[O-])CC(=O)O)CC(=O)O.[Na+].[Na+] [EXAMPLE 2, EDTA disodium] | 98.35% | 96.36% | 90.86% | –
2 | O=C(O)CN(CCN(CC(=O)O)CC(=O)O)CCN(CC(=O)O)CC(=O)O [Diethylenetriamine-N,N,N′,N″,N′-pentaacetic Acid] | – | – | – | 0.46 g/l00 mL at 25 °C
3 | O=C(O)CN(CCN(CC(=O)O)CC(=O)O)CC(=O)O [EXAMPLE 3, EDTA Free Acid] | 99.75% | 96.09% | 90.09% and 90.89% | –
4 | O=C(O)CN(CCN(CC(=O)O)CC(=O)O)CC(=O)O [EXAMPLE 1, ethylenediamine-N,N,N′,N′-tetraacetic acid] | 95.54% | 93.28% | 84.47% | –
